Test results published in patent publication US8389523B2, “Substituted quinoxaline and an agrochemical composition thereof” (Kumiai Chemical Industry Co., Ltd., priority 2007, dated 2013).

What was measured:
Assay type in all cases: in vivo
Set-up in all cases: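 grade 0 to 5 of growth suppression where 5 is 90% or more and 0 below 10%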
[1] = system: Echinochloa oryzicola Vasing; assay: Herbicidal effects in paddy field soil treatment (Test Example 1); details: paddy field soil treatment; 1000 g of the active ingredient per hectare; wettable powder added dropwise on water surface; 21st day after treatment
In short: (§1)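 Flooded-paddy soil treatment under greenhouse conditions: a diluted wettable powder at 1000 g a.i./ha went onto the water surface one day post-sowing, with 3 cm standing water, and weed control was graded on a scoring scale 21 days after treatment.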

[2] = system: Monochoria vaginalis (Burm. f.) Presl var. plantaginea (Roxb.) Solms-Laub.; assay: as above; details: paddy field soil treatment; 1000 g of the active ingredient per hectare; wettable powder added dropwise on water surface; 21st day after treatment
In short: as §1

[3] = system: Scirpus juncoides Roxb. var. ohwianus. T. Koyama; assay: as above; details: paddy field soil treatment; 1000 g of the active ingredient per hectare; wettable powder added dropwise on water surface; 21st day after treatment
In short: as §1

[4] = system: Abutilon theophrasti medicus; assay: Herbicidal effects in upland field soil treatment (Test Example 2); details: 1000 g active ingredient per hectare, 21st day after treatment, criteria of Table 138
In short: (§2)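 Soil-applied before emergence at 1000 g a.i./ha as water-diluted wettable powder; greenhouse-grown plants rated for herbicidal damage 21 days post-treatment.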

Amaranthus viridis L. [5] = assay: as above; details: 1000 g active ingredient per hectare, 21st day after treatment, criteria of Table 138
In short: as §2

[6] = system: Abutilon theophrasti medicus; assay: Herbicidal effects in upland field foliar treatment (Test Example 3); details: criteria of Table 138; for herbicidal effects on Abutilon theophrasti medicus: 1000 g of the active ingredient per hectare, 14th day after the treatment, wettable powder; for herbicidal effect (index) on Abutilon theophrasti medicus: 1000 g active ingredient per hectare, 14th day after treatment
In short: (§3)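 Post-emergence foliar treatment: two-week-old seedlings from upland field soil received 1000 g a.i./ha (wettable powder, 1000 L water/ha), then returned to the greenhouse for scoring 14 days later.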

Amaranthus viridis L. [7] = assay: as above; details: criteria of Table 138; for herbicidal effects on Amaranthus viridis L.: 1000 g of the active ingredient per hectare, 14th day after the treatment, wettable powder; for herbicidal effect (index) on Amaranthus viridis L.: 1000 g active ingredient per hectare, 14th day after treatment
In short: as §3

[8] = system: Echinochloa crus-galli (L.) P. Beauv. var. crus-galli; assay: as above; details: criteria of Table 138; for herbicidal effects on Echinochloa crus-galli (L.) P. Beauv. var. crus-galli: 1000 g of the active ingredient per hectare, 14th day after the treatment, wettable powder; for herbicidal effect (index) on Echinochloa crus-galli (L.) P. Beauv. var. crus-galli: 1000 g active ingredient per hectare, 14th day after treatment
In short: as §3

## COc1ccc(-n2c(=O)c(C(=O)C3=C(O)CCCC3=O)nc3ccccc32)c(OC)c1OC [II-218]
[1]
  Herbicidal effects index, Echinochloa oryzicola Vasing: 4
[2]
  Herbicidal effects index, Monochoria vaginalis (Burm. f.) Presl var. plantaginea (Roxb.) Solms-Laub.: 5
[3]
  Herbicidal effects index, Scirpus juncoides Roxb. var. ohwianus. T. Koyama: 5
[4]
  herbicidal effect (index) on Abutilon theophrasti medicus: 5
Amaranthus viridis L. [5]
  herbicidal effect (index) on Amaranthus viridis L.: 5
[6]
  herbicidal effects on Abutilon theophrasti medicus: 5
Amaranthus viridis L. [7]
  herbicidal effects on Amaranthus viridis L.: 5
[8]
  herbicidal effects on Echinochloa crus-galli (L.) P. Beauv. var. crus-galli: 4

## COc1ccc(-n2c(=O)c(C(=O)C3=C(O)CCCC3=O)nc3ccc(F)cc32)cc1 [II-188]
[1]
  Herbicidal effects index, Echinochloa oryzicola Vasing: 5
[2]
  Herbicidal effects index, Monochoria vaginalis (Burm. f.) Presl var. plantaginea (Roxb.) Solms-Laub.: 5
[3]
  Herbicidal effects index, Scirpus juncoides Roxb. var. ohwianus. T. Koyama: 5
[4]
  herbicidal effect (index) on Abutilon theophrasti medicus: 5
Amaranthus viridis L. [5]
  herbicidal effect (index) on Amaranthus viridis L.: 5
[6]
  herbicidal effects on Abutilon theophrasti medicus: 5
Amaranthus viridis L. [7]
  herbicidal effects on Amaranthus viridis L.: 5
[8]
  herbicidal effects on Echinochloa crus-galli (L.) P. Beauv. var. crus-galli: 4

## O=C1CCCC(O)=C1C(=O)c1nc2cccnc2n(-c2ccccc2)c1=O [IV-1, 2-(2-hydroxy-6-oxo-1-cyclohexenecarbonyl)-4-phenyl-pyrido[2,3-b]pyrazin-3(4H)-one]
[1]
  Herbicidal effects index, Echinochloa oryzicola Vasing: 5
[2]
  Herbicidal effects index, Monochoria vaginalis (Burm. f.) Presl var. plantaginea (Roxb.) Solms-Laub.: 5
[3]
  Herbicidal effects index, Scirpus juncoides Roxb. var. ohwianus. T. Koyama: 5
[4]
  herbicidal effect (index) on Abutilon theophrasti medicus: 5
Amaranthus viridis L. [5]
  herbicidal effect (index) on Amaranthus viridis L.: 5
[6]
  herbicidal effects on Abutilon theophrasti medicus: 5
Amaranthus viridis L. [7]
  herbicidal effects on Amaranthus viridis L.: 5
[8]
  herbicidal effects on Echinochloa crus-galli (L.) P. Beauv. var. crus-galli: 5

## O=C1CCCC(O)=C1C(=O)c1nc2ccc(F)cc2n(-c2ccccc2)c1=O [II-241]
[1]
  Herbicidal effects index, Echinochloa oryzicola Vasing: 5
[2]
  Herbicidal effects index, Monochoria vaginalis (Burm. f.) Presl var. plantaginea (Roxb.) Solms-Laub.: 5
[3]
  Herbicidal effects index, Scirpus juncoides Roxb. var. ohwianus. T. Koyama: 5
[4]
  herbicidal effect (index) on Abutilon theophrasti medicus: 5
Amaranthus viridis L. [5]
  herbicidal effect (index) on Amaranthus viridis L.: 5
[6]
  herbicidal effects on Abutilon theophrasti medicus: 5
Amaranthus viridis L. [7]
  herbicidal effects on Amaranthus viridis L.: 5
[8]
  herbicidal effects on Echinochloa crus-galli (L.) P. Beauv. var. crus-galli: 5

## N#CCn1c(=O)c(C(=O)C2=C(O)CCCC2=O)nc2ccccc21 [Compound I-102]
[1]
  Herbicidal effects index, Echinochloa oryzicola Vasing: 5
[2]
  Herbicidal effects index, Monochoria vaginalis (Burm. f.) Presl var. plantaginea (Roxb.) Solms-Laub.: 4
[3]
  Herbicidal effects index, Scirpus juncoides Roxb. var. ohwianus. T. Koyama: 5
[4]
  herbicidal effect (index) on Abutilon theophrasti medicus: 5
Amaranthus viridis L. [5]
  herbicidal effect (index) on Amaranthus viridis L.: 5
[6]
  herbicidal effect (index) on Abutilon theophrasti medicus: 5
Amaranthus viridis L. [7]
  herbicidal effect (index) on Amaranthus viridis L.: 5
[8]
  herbicidal effect (index) on Echinochloa crus-galli (L.) P. Beauv. var. crus-galli: 5

## O=C1CCCC(O)=C1C(=O)c1nc2cccnc2n(COCC(F)(F)F)c1=O [III-59]
[1]
  Herbicidal effects index, Echinochloa oryzicola Vasing: 5
[2]
  Herbicidal effects index, Monochoria vaginalis (Burm. f.) Presl var. plantaginea (Roxb.) Solms-Laub.: 5
[3]
  Herbicidal effects index, Scirpus juncoides Roxb. var. ohwianus. T. Koyama: 5
[4]
  herbicidal effect (index) on Abutilon theophrasti medicus: 5
Amaranthus viridis L. [5]
  herbicidal effect (index) on Amaranthus viridis L.: 5
[6]
  herbicidal effects on Abutilon theophrasti medicus: 5
Amaranthus viridis L. [7]
  herbicidal effects on Amaranthus viridis L.: 5
[8]
  herbicidal effects on Echinochloa crus-galli (L.) P. Beauv. var. crus-galli: 5

## COc1c(Cl)cc(-n2c(=O)c(C(=O)C3=C(O)CCCC3=O)nc3ccccc32)cc1Cl [II-221]
[1]
  Herbicidal effects index, Echinochloa oryzicola Vasing: 4
[2]
  Herbicidal effects index, Monochoria vaginalis (Burm. f.) Presl var. plantaginea (Roxb.) Solms-Laub.: 5
[3]
  Herbicidal effects index, Scirpus juncoides Roxb. var. ohwianus. T. Koyama: 5
[4]
  herbicidal effect (index) on Abutilon theophrasti medicus: 4
Amaranthus viridis L. [5]
  herbicidal effect (index) on Amaranthus viridis L.: 5
[6]
  herbicidal effects on Abutilon theophrasti medicus: 5
Amaranthus viridis L. [7]
  herbicidal effects on Amaranthus viridis L.: 5
[8]
  herbicidal effects on Echinochloa crus-galli (L.) P. Beauv. var. crus-galli: 5

## CCSCn1c(=O)c(C(=O)C2=C(O)CCCC2=O)nc2ccccc21 [Compound I-72]
[1]
  Herbicidal effects index, Echinochloa oryzicola Vasing: 5
[2]
  Herbicidal effects index, Monochoria vaginalis (Burm. f.) Presl var. plantaginea (Roxb.) Solms-Laub.: 5
[3]
  Herbicidal effects index, Scirpus juncoides Roxb. var. ohwianus. T. Koyama: 5
[4]
  herbicidal effect (index) on Abutilon theophrasti medicus: 5
Amaranthus viridis L. [5]
  herbicidal effect (index) on Amaranthus viridis L.: 5
[6]
  herbicidal effect (index) on Abutilon theophrasti medicus: 5
Amaranthus viridis L. [7]
  herbicidal effect (index) on Amaranthus viridis L.: 5
[8]
  herbicidal effect (index) on Echinochloa crus-galli (L.) P. Beauv. var. crus-galli: 5

## CC(c1ccccc1)n1c(=O)c(C(=O)C2=C(O)CCCC2=O)nc2cccnc21 (stereo not shown) [III-130]
[1]
  Herbicidal effects index, Echinochloa oryzicola Vasing: 5
[2]
  Herbicidal effects index, Monochoria vaginalis (Burm. f.) Presl var. plantaginea (Roxb.) Solms-Laub.: 5
[3]
  Herbicidal effects index, Scirpus juncoides Roxb. var. ohwianus. T. Koyama: 5
[4]
  herbicidal effect (index) on Abutilon theophrasti medicus: 5
Amaranthus viridis L. [5]
  herbicidal effect (index) on Amaranthus viridis L.: 5
[6]
  herbicidal effects on Abutilon theophrasti medicus: 5
Amaranthus viridis L. [7]
  herbicidal effects on Amaranthus viridis L.: 5
[8]
  herbicidal effects on Echinochloa crus-galli (L.) P. Beauv. var. crus-galli: 5

## O=C1CCCC(O)=C1C(=O)c1nc2ccccc2n(-c2ccccn2)c1=O [I-171]
[1]
  Herbicidal effects index, Echinochloa oryzicola Vasing: 5
[2]
  Herbicidal effects index, Monochoria vaginalis (Burm. f.) Presl var. plantaginea (Roxb.) Solms-Laub.: 5
[3]
  Herbicidal effects index, Scirpus juncoides Roxb. var. ohwianus. T. Koyama: 5
[4]
  herbicidal effect (index) on Abutilon theophrasti medicus: 5
Amaranthus viridis L. [5]
  herbicidal effect (index) on Amaranthus viridis L.: 5
[6]
  herbicidal effect (index) on Abutilon theophrasti medicus: 5
Amaranthus viridis L. [7]
  herbicidal effect (index) on Amaranthus viridis L.: 5
[8]
  herbicidal effect (index) on Echinochloa crus-galli (L.) P. Beauv. var. crus-galli: 5

## O=C1CCCC(O)=C1C(=O)c1nc2ccccc2n(-c2cccc(OC(F)F)c2)c1=O [II-90]
[1]
  Herbicidal effects index, Echinochloa oryzicola Vasing: 5
[2]
  Herbicidal effects index, Monochoria vaginalis (Burm. f.) Presl var. plantaginea (Roxb.) Solms-Laub.: 5
[3]
  Herbicidal effects index, Scirpus juncoides Roxb. var. ohwianus. T. Koyama: 5
[4]
  herbicidal effect (index) on Abutilon theophrasti medicus: 5
Amaranthus viridis L. [5]
  herbicidal effect (index) on Amaranthus viridis L.: 5
[6]
  herbicidal effects on Abutilon theophrasti medicus: 5
Amaranthus viridis L. [7]
  herbicidal effects on Amaranthus viridis L.: 5
[8]
  herbicidal effects on Echinochloa crus-galli (L.) P. Beauv. var. crus-galli: 5

## CS(=O)(=O)c1ccc(-n2c(=O)c(C(=O)C3=C(O)CCCC3=O)nc3ccccc32)cc1 [II-125]
[1]
  Herbicidal effects index, Echinochloa oryzicola Vasing: 5
[2]
  Herbicidal effects index, Monochoria vaginalis (Burm. f.) Presl var. plantaginea (Roxb.) Solms-Laub.: 5
[3]
  Herbicidal effects index, Scirpus juncoides Roxb. var. ohwianus. T. Koyama: 5
[4]
  herbicidal effect (index) on Abutilon theophrasti medicus: 5
Amaranthus viridis L. [5]
  herbicidal effect (index) on Amaranthus viridis L.: 5
[6]
  herbicidal effects on Abutilon theophrasti medicus: 5
Amaranthus viridis L. [7]
  herbicidal effects on Amaranthus viridis L.: 5
[8]
  herbicidal effects on Echinochloa crus-galli (L.) P. Beauv. var. crus-galli: 5

## COc1ccc(-n2c(=O)c(C(=O)C3=C(O)CCCC3=O)nc3ccccc32)cc1 [II-62]
[1]
  Herbicidal effects index, Echinochloa oryzicola Vasing: 5
[2]
  Herbicidal effects index, Monochoria vaginalis (Burm. f.) Presl var. plantaginea (Roxb.) Solms-Laub.: 5
[3]
  Herbicidal effects index, Scirpus juncoides Roxb. var. ohwianus. T. Koyama: 5
[4]
  herbicidal effect (index) on Abutilon theophrasti medicus: 5
Amaranthus viridis L. [5]
  herbicidal effect (index) on Amaranthus viridis L.: 5
[6]
  herbicidal effects on Abutilon theophrasti medicus: 5
Amaranthus viridis L. [7]
  herbicidal effects on Amaranthus viridis L.: 5
[8]
  herbicidal effects on Echinochloa crus-galli (L.) P. Beauv. var. crus-galli: 4

## CCn1c(=O)c(C(=O)C2=C(O)CCCC2=O)nc2ccccc21 [Compound I-7]
[1]
  Herbicidal effects index, Echinochloa oryzicola Vasing: 5
[2]
  Herbicidal effects index, Monochoria vaginalis (Burm. f.) Presl var. plantaginea (Roxb.) Solms-Laub.: 5
[3]
  Herbicidal effects index, Scirpus juncoides Roxb. var. ohwianus. T. Koyama: 5
[4]
  herbicidal effect (index) on Abutilon theophrasti medicus: 5
Amaranthus viridis L. [5]
  herbicidal effect (index) on Amaranthus viridis L.: 5
[6]
  herbicidal effect (index) on Abutilon theophrasti medicus: 5
Amaranthus viridis L. [7]
  herbicidal effect (index) on Amaranthus viridis L.: 5
[8]
  herbicidal effect (index) on Echinochloa crus-galli (L.) P. Beauv. var. crus-galli: 4
